Converted amounts (≈) assume the structure as drawn. The source made the active and inactive calls. The calls are words filed in the database; no cut-off is given here.
Columns and labels:
[1] = system: Mycobacterium tuberculosis; assay: Antitubercular activity against Mycobacterium tuberculosis H37Rv ATCC 27294 at 6.25 ug/ml after 5 days by microplate Alamar Blue assay; type: functional; conditions: H37Rv ATCC 27294, 120 h
[2] = system: Mycobacterium tuberculosis; assay: Antitubercular activity against Mycobacterium tuberculosis H37Rv ATCC 27294 after 5 days by microplate Alamar Blue assay; type: functional; conditions: H37Rv ATCC 27294, 120 h
[3] = Cytotoxicity against African green monkey Vero cells assessed as cell survival at 10 times MIC after 72 hrs by MTT assay; type: cell-based; conditions: chlorocebus sabaeus, read-out: Survival
[4] = species on record: Bos taurus; assay: Induction of DNA cleavage in calf thymus DNA at 10 ug after 2 hrs by agarose gel electrophoresis method

## O=c1oc2ccc3ccccc3c2cc1-c1cc(-c2ccc(Br)cc2)nc(Cc2ccc(F)cc2)n1
[1]
  inhibition at 6.25 µg/mL: 96%
[2]
  MIC: 1.56 µg/mL (≈ 2.9 µM)
[3]
  viability at 72 h, 10 times MIC: 72%
[4]
  Activity: Active

## O=c1oc2ccc3ccccc3c2cc1-c1cc(-c2ccc([N+](=O)[O-])cc2)nc(Cc2ccc(F)cc2)n1
[1]
  inhibition at 6.25 µg/mL: 95%
[2]
  MIC: 2.81 µg/mL (≈ 5.58 µM)
[3]
  viability at 72 h, 10 times MIC: 39%

## COc1ccc(-c2cc(-c3cc4c(ccc5ccccc54)oc3=O)nc(Cc3ccc(F)cc3)n2)cc1
[1]
  inhibition at 6.25 µg/mL: 100%
[2]
  MIC: 0.05 µg/mL (≈ 0.102 µM)
[3]
  viability at 72 h, 10 times MIC: 97%
[4]
  Activity: Active

## NNC(=O)c1ccncc1 [ISONIAZID]
[1]
  inhibition at 6.25 µg/mL: 100%
[2]
  MIC: 0.02 µg/mL (≈ 0.146 µM)
[3]
  viability at 72 h, 10 times MIC: 100%

## COc1cccc(-c2cc(-c3cc4c(ccc5ccccc54)oc3=O)nc(Cc3ccc(F)cc3)n2)c1
[1]
  inhibition at 6.25 µg/mL: 100%
[2]
  MIC: 0.19 µg/mL (≈ 0.389 µM)
[3]
  viability at 72 h, 10 times MIC: 93%

## O=c1oc2ccc3ccccc3c2cc1-c1cc(-c2ccccc2[N+](=O)[O-])nc(Cc2ccc(F)cc2)n1
[1]
  inhibition at 6.25 µg/mL: 90%
[2]
  MIC: 6.25 µg/mL (≈ 12.4 µM)
[3]
  viability at 72 h, 10 times MIC: 17%

## O=c1oc2ccc3ccccc3c2cc1-c1cc(-c2cccc(Cl)c2)nc(Cc2ccc(F)cc2)n1
[1]
  inhibition at 6.25 µg/mL: 93%
[2]
  MIC: 1.56 µg/mL (≈ 3.16 µM)
[3]
  viability at 72 h, 10 times MIC: 75%
[4]
  Activity: Active

## Cc1cccc(-c2cc(-c3cc4c(ccc5ccccc54)oc3=O)nc(Cc3ccc(F)cc3)n2)c1
[1]
  inhibition at 6.25 µg/mL: 76%

## COc1ccccc1-c1cc(-c2cc3c(ccc4ccccc43)oc2=O)nc(Cc2ccc(F)cc2)n1
[1]
  inhibition at 6.25 µg/mL: 98%
[2]
  MIC: 0.78 µg/mL (≈ 1.6 µM)
[3]
  viability at 72 h, 10 times MIC: 91%

## O=c1oc2ccc3ccccc3c2cc1-c1cc(-c2ccc(Cl)cc2)nc(Cc2ccc(F)cc2)n1
[1]
  inhibition at 6.25 µg/mL: 96%
[2]
  MIC: 1.21 µg/mL (≈ 2.45 µM)
[3]
  viability at 72 h, 10 times MIC: 79%

## O=c1oc2ccc3ccccc3c2cc1-c1cc(-c2cccc(Br)c2)nc(Cc2ccc(F)cc2)n1
[1]
  inhibition at 6.25 µg/mL: 93%
[2]
  MIC: 2.81 µg/mL (≈ 5.23 µM)
[3]
  viability at 72 h, 10 times MIC: 64%

## Cc1ccccc1-c1cc(-c2cc3c(ccc4ccccc43)oc2=O)nc(Cc2ccc(F)cc2)n1
[1]
  inhibition at 6.25 µg/mL: 73%

## Cc1ccc(-c2cc(-c3cc4c(ccc5ccccc54)oc3=O)nc(Cc3ccc(F)cc3)n2)cc1
[1]
  inhibition at 6.25 µg/mL: 81%

## O=c1oc2ccc3ccccc3c2cc1-c1cc(-c2ccccc2Cl)nc(Cc2ccc(F)cc2)n1
[1]
  inhibition at 6.25 µg/mL: 75%

## O=c1oc2ccc3ccccc3c2cc1-c1cc(-c2ccccc2Br)nc(Cc2ccc(F)cc2)n1
[1]
  inhibition at 6.25 µg/mL: 77%

## O=c1oc2ccc3ccccc3c2cc1-c1cc(-c2cccc([N+](=O)[O-])c2)nc(Cc2ccc(F)cc2)n1
[1]
  inhibition at 6.25 µg/mL: 91%
[2]
  MIC: 3.12 µg/mL (≈ 6.2 µM)
[3]
  viability at 72 h, 10 times MIC: 26%
[4]
  Activity: Active
